Data taken from patent US10195185B2, “3-(1H-imidazo[4,5-C]pyridin-2-yl)-1H-pyrazolo[4,3-B]pyridines and therapeutic uses thereof” (Samumed, LLC, priority 2015, dated 2019).

Legend:
Format in all cases: cell-based
[1] = system: Wnt activity (Wnt-responsive human Sp5 promoter, TCF/LEF binding sites) in SW480 colon carcinoma cells; test: Wnt activity screening assay: Sp5-Luc luciferase reporter gene in SW480 cells; conditions: 10-point dose-response from 10 μM, incubated overnight
From the text: The screening assay for Wnt activity is described as follows. Reporter cell lines can be generated by stably transducing cancer cell lines (e.g., colon cancer) or primary cells (e.g., IEC-6 intestinal cells) with a lentiviral construct that includes a Wnt-responsive promoter driving expression of the firefly luciferase gene.
SW480 colon carcinoma cells were transduced with a lentiviral vector expressing luciferase with a human Sp5 promoter consisting of a sequence of eight TCF/LEF binding sites. SW480 cells stably expressing the Sp5-Luc reporter gene and a hygromycin resistance gene were selected by treatment with 150 μg/mL of hygromycin for 7 days. These stably transduced SW480 cells were expanded in cell culture and used for all further screening activities. Each compound was dissolved in DMSO as a 10 mM stock and used to prepare compound source plates. Serial dilution (1:3, 10-point dose-response curves starting from 10 μM) and compound transfer was performed using the ECHO 550 (Labcyte, Sunnyvale, Calif.) into 384-well white solid bottom assay plates (Greiner Bio-One) with appropriate DMSO backfill for a final DMSO concentration of 0.1%. For Sp5-Luc reporter gene assays, the cells were plated at 4,000 cells/well in 384-well plates with medium containing 1% fetal bovine serum and incubated overnight at 37° C. and 5% CO2. Following incubation, 20 μl of BrightGlo luminescence reagent (Promega) was added to each well of the 384-well assay plates. The plates were placed on an orbital shaker for 2 min and then luminescence was quantified using the Envision (Perkin Elmer) plate reader. Readings were normalized to DMSO only treated cells, and normalized activities were utilized for EC50 calculations using the dose-response log (inhibitor) vs. response-variable slope (four parameters) nonlinear regression feature available in GraphPad Prism 5.0 (or Dotmatics). For EC50 of >10 μM, the percent inhibition at 10 μM is provided.

SW480 colon cancer cells = test: Cell viability assay (CellTiter-Blue), four days; conditions: Homo sapiens, 96 h, CellTiter-Blue cell viability
Description: Representative compounds were screened using the following assay procedure to assess the effect on cell viability as described below.
Each compound was dissolved in DMSO as a 10 mM stock and used to prepare compound source plates. Serial dilution (1:3, 8-point dose-response curves from 10 μM to 0.0045 μM) and compound transfer was performed using the ECHO 550 (Labcyte, Sunnyvale, Calif.) into 96-well clear bottom, black-walled plates (Corning-Costar).
Approximately 2×10^3 SW480 colon cancer cells were seeded into each well and allowed to incubate in the presence or absence of compound for four days at 37° C./5% CO2. Eight replicates of DMSO-treated cells served as controls and cells treated with compound were performed in duplicate.
After incubation, 20 μL of CellTiter-Blue (Promega) was added to each well allowed to incubate for approximately 3 hours. This reagent was a buffered solution which contains resazurin, metabolically active cells were able to reduce rezarurin (blue) into resorufin (pink) which was highly fluorescent. This measured fluorescence was used as a readout for cell viability.
After incubation, the plates were read at Ex 560 nm Em 590 nm (Cytation 3, BioTek). Dose-response curves were generated and EC50 concentration values were calculated using non-linear regression curve fit in the GraphPad Prism (San Diego, Calif.) or Dotmatics' Studies Software (Bishops Stortford, UK). For EC50 of >10 μM, the percent inhibition at 10 μM is provided.

[2] = system: IL-6 in human monocyte cell line (THP-1 cells); test: IL-6 inhibition in LPS-stimulated THP-1 cells (HTRF); conditions: IL-6 in LPS-stimulated THP-1 cells, HTRF
Description: Human monocyte cell line (THP-1 cells; Catalog # TIB-202, ATCC, Manassas, Va.) were cultured in Roswell Park Memorial Institute (RPMI) 1640 Medium (Catalog #21870-100, Buffalo, N.Y.) with 1% L-glutamine, 1% HEPES, 1% Sodium Pyruvate, 2% Sodium Bicarbonate supplemented with 100 units/mL penicillin, 50 μg/mL streptomycin, 2-mercaptoethanol (0.05 mM) [basal medium] and 10% fetal bovine serum (Catalog #16140089, Life Technologies, Carlsbad, Calif.) at 37° C. and 5% CO2.
THP-1 cells were cultured in basal media with 1% FBS for 24 hours before the start of the assay. Each compound was dissolved in DMSO as a 10 mM stock and used to prepare compound source plates. Serial dilution (1:3, 10-point dose-response curves starting from 10 μM) and compound transfer was performed using the ECHO 550 (Labcyte, Sunnyvale, Calif.) into 384-well white low volume assay plates (Greiner Bio-One) with appropriate DMSO backfill for a final DMSO concentration of 0.1%. THP-1 cells were plated at 5000 cells/well in the 384-well plates and incubated at 37° C. for 2 h. 500 ng/mL of LPS was added after 2 hours and cells were incubated for another 22 hours at 37° C. Plates were spun in a centrifuge for 1 minute at […] and a mixture of anti-IL6 XL665, and anti-IL6 Cryptate diluted in reconstitution buffer (Cisbio Inc.) was added to each well. Following incubation for 3 hrs at room temperature, Homogeneous Time-Resolved Fluorescence (HTRF) was measured using the Envision (Perkin Elmer) at 665 nm and […]. The ratio of fluorescence at 665 nm to 620 nm was used as a readout for IL6 quantification. All samples were processed in duplicate. Readings were normalized to DMSO treated cells and normalized activities were utilized for EC50 calculations using the dose-response log (inhibitor) vs. response-variable slope (four parameters) nonlinear regression feature available in GraphPad Prism 5.0 (or Dotmatics). For EC50 of >10 μM, the percent inhibition at 10 μM is provided.

[3] = system: Primary human fibroblasts derived from IPF patients (LL29 cells) treated with TGF-β1; test: Inhibition of the fibrotic process: αSMA staining in TGF-β1 treated fibroblasts; conditions: Fibroblast, 96 h, LL29 fibroblasts treated with TGF-β1, 4 days
From the text: Representative compounds were screened using primary human fibroblasts (derived from IPF patients) treated with TGF-β1 to determine their ability to inhibit the fibrotic process.
Primary human fibroblasts derived from IPF patients (LL29 cells) [^1Xiaoqiu Liu, et. al., “Fibrotic Lung Fibroblasts Show Blunted Inhibition by cAMP Due to Deficient cAMP Response Element-Binding Protein Phosphorylation”, Journal of Pharmacology and Experimental Therapeutics (2005), 315(2), 678-687; ^2Watts, K. L., et. al., “RhoA signaling modulates cyclin D1 expression in human lung fibroblasts; implications for idiopathic pulmonary fibrosis”, Respiratory Research (2006), 7(1), 88] were obtained from American Type Culture Collection (ATCC) and expanded in F12 medium supplemented with 15% Fetal Bovine Serum and Penicillin/Streptomycin.
Each compound was dissolved in DMSO as a 10 mM stock and used to prepare compound source plates. Serial dilution (1:2, 11-point dose-response curves from 10 μM to 1.87 nM) and compound transfer was performed using the ECHO 550 (Labcyte, Sunnyvale, Calif.) into 384-well clear bottom assay plates (Greiner Bio-One) with appropriate DMSO backfill for a final DMSO concentration of 0.1%. LL29 cells are plated at 1,500 cells/well in 80 μL/well F12 medium supplemented with 1% Fetal Bovine Serum. One hour after addition of the cells, TGF-β1 (Peprotech; 20 ng/mL) was added to the plates to induce fibrosis (ref. 1 and 2 above). Wells treated with TGF-β1 and containing DMSO were used as controls. Cells were incubated at 37° C. and 5% CO2 for 4 days. Following incubation for 4 days, SYTOX green nucleic acid stain (Life Technologies [Thermo Fisher Scientific]) was added to the wells at a final concentration of 1 μM and incubated at room temperature for 30 min. Cells were then fixed using 4% formaldehyde (Electron Microscopy Sciences), washed 3 times with PBS followed by blocking and permeabilization using 3% Bovine Serum Albumin (BSA; Sigma) and 0.3% Triton X-100 (Sigma) in PBS. Cells were then stained with antibody specific to α-smooth muscle actin (αSMA; Abcam) (ref. 1 and 2 above) in 3% Bovine Serum Albumin (BSA; Sigma) and 0.3% Triton X-100 (Sigma) in PBS, and incubated overnight at 4° C. Cells were then washed 3 times with PBS, followed by incubation with Alexa Flor-647 conjugated secondary antibody (Life Technologies [Thermo Fisher Scientific]) and DAPI at room temperature for 1 hour. Cells were then washed 3 times with PBS and plates were sealed for imaging. αSMA staining was imaged by excitation at 630 nm and emission at 665 nm and quantified using the Compartmental Analysis program on the CellInsight CX5 (Thermo Scientific). Dead or apoptotic cells were excluded from analysis based on positive SYTOX green staining. % of total cells positive for αSMA were counted in each well and normalized to the average of 11 wells treated with TGF-β1 on the same plate using Dotmatics' Studies Software. The normalized averages (fold change over untreated) of 3 replicate wells for each compound concentration were used to create dose-responses curves and EC50 values were calculated using non-linear regression curve fit in the Dotmatics' Studies Software. For EC50 of >10 μM, the percent inhibition at 10 μM is provided.

Row | SMILES | EC50 [1] [µM] | EC50 (SW480 colon cancer cells) [µM] | EC50 [2] [µM] | EC50 [3] [µM]
1 | Cc1ncc(-c2ccc3[nH]nc(-c4nc5c(-c6cccc(F)c6)nccc5[nH]4)c3n2)n1C [Compound 509, 5-(1,2-Dimethyl-1H-imidazol-5-yl)-3-(4-(3-fluorophenyl)-1H-imidazo[4,5-c]pyridin-2-yl)-1H-pyrazolo[4,3-b]pyridine] | 0.036 | 0.688 | 0.437 | 0.202
2 | c1csc(-c2nccc3[nH]c(-c4n[nH]c5ccc(-c6ccncc6)nc45)nc23)c1 [Compound 354, 5-(Pyridin-4-yl)-3-(4-(thiophen-2-yl)-1H-imidazo[4,5-c]pyridin-2-yl)-1H-pyrazolo[4,3-b]pyridine] | 1.07 | 1.05 | 9.11 | 0.792
3 | CN1CCN(c2nccc3[nH]c(-c4n[nH]c5ccc(-c6cncc(OC7CCCCC7)c6)nc45)nc23)CC1 [Compound 639, 5-(5-(Cyclohexyloxy)pyridin-3-yl)-3-(4-(4-methylpiperazin-1-yl)-1H-imidazo[4,5-c]pyridin-2-yl)-1H-pyrazolo[4,3-b]pyridine] | 2.67 | 2.42 | 3.42 | 2.61
4 | Cc1ncc(-c2ccc3[nH]nc(-c4nc5c(-c6cc(F)cc(NCCN(C)C)c6)nccc5[nH]4)c3n2)n1C [Compound 781, N^1-(3-(2-(5-(1,2-Dimethyl-1H-imidazol-5-yl)-1H-pyrazolo[4,3-b]pyridin-3-yl)-1H-imidazo[4,5-c]pyridin-4-yl)-5-fluorophenyl)-N^2,N^2-dimethylethane-1,2-diamine] | 1.88 | 6.55 | 3.91 | 3.1
5 | C1=C(c2ccc3[nH]nc(-c4nc5c(-c6ccc7c(c6)OCO7)nccc5[nH]4)c3n2)CCNC1 [Compound 1109, 3-(4-(Benzo[d][1,3]dioxol-5-yl)-1H-imidazo[4,5-c]pyridin-2-yl)-5-(1,2,3,6-tetrahydropyridin-4-yl)-1H-pyrazolo[4,3-b]pyridine] | 0.652 | 3.41 | 0.154 | 3.85
6 | CN1CCN(c2nccc3[nH]c(-c4n[nH]c5ccc(-c6cncc(OCc7ccccc7)c6)nc45)nc23)CC1 [Compound 646, 5-(5-(Benzyloxy)pyridin-3-yl)-3-(4-(4-methylpiperazin-1-yl)-1H-imidazo[4,5-c]pyridin-2-yl)-1H-pyrazolo[4,3-b]pyridine] | 3.85 | 3.13 | 1.49 | 3.98
7 | FC1(F)CCN(Cc2cncc(-c3ccc4[nH]nc(-c5nc6c(N7CCCCC7)nccc6[nH]5)c4n3)c2)C1 [Compound 194, 5-(5-((3,3-Difluoropyrrolidin-1-yl)methyl)pyridin-3-yl)-3-(4-(piperidin-1-yl)-1H-imidazo[4,5-c]pyridin-2-yl)-1H-pyrazolo[4,3-b]pyridine] | 3.39 | 1.96 | 2.49 | 2.24
8 | Oc1cncc(-c2ccc3[nH]nc(-c4nc5c(N6CCCCC6)nccc5[nH]4)c3n2)c1 [Compound 613, 5-(3-(4-(Piperidin-1-yl)-1H-imidazo[4,5-c]pyridin-2-yl)-1H-pyrazolo[4,3-b]pyridin-5-yl)pyridin-3-ol] | 2.2 | 9.37 | 3.98 | 9.46
9 | COc1cncc(-c2ccc3[nH]nc(-c4nc5c(N6CCCCC6)nccc5[nH]4)c3n2)c1 [Compound 612, 5-(5-Methoxypyridin-3-yl)-3-(4-(piperidin-1-yl)-1H-imidazo[4,5-c]pyridin-2-yl)-1H-pyrazolo[4,3-b]pyridine] | 3.23 | 3.99 | 3.81 | 2.92
10 | CN(C)CCNc1cc(F)cc(-c2nccc3[nH]c(-c4n[nH]c5ccc(-c6cncc(CNCC7CCCC7)c6)nc45)nc23)c1 [Compound 473, N^1-(3-(2-(5-(5-(((Cyclopentylmethyl)amino)methyl)pyridin-3-yl)-1H-pyrazolo[4,3-b]pyridin-3-yl)-1H-imidazo[4,5-c]pyridin-4-yl)-5-fluorophenyl)-N^2,N^2-dimethylethane-1,2-diamine] | 4.41 | 8.37 | 4.66 | 5.06
